The target of this assay is T1, IRE1α (Homo sapiens, UniProt O75460).
T1 construct: endogenous in cells; host or cells: HT1080
As to the kind of experiment: IRE1α expression and kinase function (phospho-IRE1α immunoblot). The assay is classed as cell-based. On the procedure:
Cells (2×10^6) were cultured in 10-cm dishes, collected using a cell scraper at 4° C., and lysed by addition of 150 μl cell lysis buffer [50 mM Tris pH 7.4, 150 mM NaCl, 10% glycerol, 0.5% Triton X-100. 0.5% NP-40, 2 mM Na3VO4, 20 mM beta-glycerophosphate, 10 mM NaF, 1 mM DTT, 1 mM PMSF). Lysates were centrifuged for 5 min at 10,000×g, and proteins (˜40 μg) were resolved by SDS-PAGE followed by semi-dry transfer to nitrocellulose membranes. Membranes were blocked in TBS-5% milk supplemented with 0.1% Tween-20. The blots were then probed overnight with relevant antibodies, washed, and incubated for 2 hours with species-specific secondary antibodies conjugated to horseradish peroxidase. After washing in block solution, immunoreactive material was detected by enhanced chemiluminescence (SuperSignal West Dura Extended, Pierce, Inc., Rockville, Ill.).
HT1080 cells were exposed to DMSO vehicle (lane 1), irestatin 9389 (2.5 μM; lane 2) for 16 hours or Tm (5 μg/ml; lane 3) for 8 hours. Following treatments, cells were harvested, lysed, and analyzed by immunoblotting using anti-Grp78 antibody (top) or anti-actin (bottom) as a loading control. […] Cell lysates were analyzed by Western immunoblotting using anti-IRE1α (bottom) or anti-phospho-IRE1α antibodies (top). […] Lysates were analyzed by Western blot using antisera specific for phospho-JNK1 (top) or total JNK1 (bottom). […]

T1 sequence (O75460 19-977): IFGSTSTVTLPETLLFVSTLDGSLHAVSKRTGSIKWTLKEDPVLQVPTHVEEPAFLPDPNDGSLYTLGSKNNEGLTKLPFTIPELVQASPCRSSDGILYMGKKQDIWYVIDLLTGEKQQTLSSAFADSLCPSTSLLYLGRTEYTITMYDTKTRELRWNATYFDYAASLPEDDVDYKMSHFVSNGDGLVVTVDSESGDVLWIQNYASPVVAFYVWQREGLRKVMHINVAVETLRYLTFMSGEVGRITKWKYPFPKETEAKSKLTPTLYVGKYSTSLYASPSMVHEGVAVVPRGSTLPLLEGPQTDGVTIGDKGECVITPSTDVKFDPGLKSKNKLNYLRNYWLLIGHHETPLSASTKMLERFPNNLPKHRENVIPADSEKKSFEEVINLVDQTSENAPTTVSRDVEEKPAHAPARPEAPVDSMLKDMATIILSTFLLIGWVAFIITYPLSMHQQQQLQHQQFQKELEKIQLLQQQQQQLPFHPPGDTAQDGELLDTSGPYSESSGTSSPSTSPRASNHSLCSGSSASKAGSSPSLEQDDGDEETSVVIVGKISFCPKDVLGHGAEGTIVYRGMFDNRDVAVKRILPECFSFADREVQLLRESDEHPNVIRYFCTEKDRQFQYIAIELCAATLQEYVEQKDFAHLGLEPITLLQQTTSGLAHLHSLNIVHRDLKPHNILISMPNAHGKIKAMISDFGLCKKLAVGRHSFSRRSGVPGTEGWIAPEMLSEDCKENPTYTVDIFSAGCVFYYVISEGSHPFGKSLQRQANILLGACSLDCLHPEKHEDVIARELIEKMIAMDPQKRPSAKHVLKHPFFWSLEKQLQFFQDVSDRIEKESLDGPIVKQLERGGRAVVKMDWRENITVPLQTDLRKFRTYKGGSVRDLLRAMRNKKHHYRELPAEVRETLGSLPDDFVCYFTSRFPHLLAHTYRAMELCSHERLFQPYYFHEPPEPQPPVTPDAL

Take `Cc1csc(NC(=O)CSc2nc3c(c(C(F)(F)F)c2C#N)CCC3)n1` [Compound 9389]: the “total level of IRE1α” value (2.5 μM, 16 hours) is on record as “no significant changes”. In addition, under “16 hours preincubation 2.5 μM, then Tm 5 μg/ml”, the “levels of phospho-IRE1α after Tm” value is listed as “rapid increase in levels of phospho-IRE1α”.

For the origin of these results see patent US20090291857A1, “METHODS TO IDENTIFY INHIBITORS OF THE UNFOLDED PROTEIN RESPONSE” (THE BOARD OF TRUSTEES OF THE LELAND STANFORD JUNIOR …, priority 2006, published 2009).
